Several values for one entry are separate records, joined by “and”; a condition that tells them apart may be missing. Equal entries are not always repeated. Entries after “also recorded” stand apart in the source; their conditions may differ. Where two headings read alike, the source gives them in different places.
Columns and labels:
Type in all cases: cell-based
Human Nav1.9 = target: T1, Human Nav1.9 (Homo sapiens, UniProt Q9UI33); assay: PatchXpress whole-cell voltage clamp, inhibition of human Nav1.9 (+β1/β2) currents in HEK-293 cells; design: key to Activity on human Nav1.9 at single concentration: NA = not active; conditions: for Increase in potency at the most depolarized membrane potential: -90 mV vs -140 mV (resting to half-inactivated channels)
T1 construct: expressed in transfected cells; host or cells: HEK-293 stably expressing human β1/β2

[1] = target: T2, Human Nav1.9 F1592A/Y1599A (Homo sapiens, UniProt Q9UI33, F1592A/Y1599A); assay: PatchXpress whole-cell voltage clamp, inhibition of the human Nav1.9 F1592A/Y1599A local anesthetic site mutant in HEK-293 cells; conditions: for IC50: read-out: IC50 for inhibition of human Nav1.9 F1592A/Y1599A (LAM)
T2 construct: expressed in transfected cells; host or cells: HEK-293-β1/β2

Nav1.9 K799N = target: T3, Nav1.9 K799N (Homo sapiens, UniProt Q9UI33, K799N); assay: PatchXpress whole-cell voltage clamp, inhibition of the human Nav1.9 K799N mutant in HEK-293 cells; conditions: for IC50: protocol of Fig 2
T3 construct: expressed in transfected cells; host or cells: HEK-293-β1/β2

Human Nav1.8 = Human Nav1.8 (Homo sapiens, UniProt Q9Y5Y9); assay: Whole-cell voltage clamp, inhibition of human Nav1.8; conditions: ~50% inactivated
Nav1.7 N945K = target: T4, Nav1.7 N945K (Homo sapiens, UniProt Q15858, N956K); assay: PatchXpress whole-cell voltage clamp, inhibition of the human Nav1.7 N945K mutant in HEK-293 cells
T4 construct: expressed in transfected cells; host or cells: HEK-293-β1/β2

Mouse Nav1.9 = target: T5, Mouse Nav1.9 (Mus musculus, UniProt Q9R053); assay: PatchXpress whole-cell voltage clamp, inhibition of mouse Nav1.9 (+mouse β1/β2) in HEK-293 cells
T5 construct: expressed in transfected cells; host or cells: HEK-293-mouse β1/β2

Rat Nav1.9 = target: T6, Rat Nav1.9 (Rattus norvegicus, UniProt O88457); assay: PatchXpress whole-cell voltage clamp, inhibition of rat Nav1.9 (+rat β1/β2) in HEK-293 cells
T6 construct: expressed in transfected cells; host or cells: HEK-293-rat β1/β2

Human Nav1.7 = target: T7, Human Nav1.7 (Homo sapiens, UniProt Q15858); assay: PatchXpress whole-cell voltage clamp, inhibition of human Nav1.7 in HEK-293 cells
T7 construct: expressed in transfected cells; host or cells: HEK-293-β1/β2

[2] = holding potential -120 mV (~25% inactivation), 40 ms step to -40 mV every 20 s, HEK-293 + β1/β2, 500 μM GTP-γ-S in pipette, read-out: IC50 for inhibition of human Nav1.9
[3] = Nav1.9 F1592A/Y1599A vs Nav1.9 WT

T1 sequence (Q9UI33 whole entry): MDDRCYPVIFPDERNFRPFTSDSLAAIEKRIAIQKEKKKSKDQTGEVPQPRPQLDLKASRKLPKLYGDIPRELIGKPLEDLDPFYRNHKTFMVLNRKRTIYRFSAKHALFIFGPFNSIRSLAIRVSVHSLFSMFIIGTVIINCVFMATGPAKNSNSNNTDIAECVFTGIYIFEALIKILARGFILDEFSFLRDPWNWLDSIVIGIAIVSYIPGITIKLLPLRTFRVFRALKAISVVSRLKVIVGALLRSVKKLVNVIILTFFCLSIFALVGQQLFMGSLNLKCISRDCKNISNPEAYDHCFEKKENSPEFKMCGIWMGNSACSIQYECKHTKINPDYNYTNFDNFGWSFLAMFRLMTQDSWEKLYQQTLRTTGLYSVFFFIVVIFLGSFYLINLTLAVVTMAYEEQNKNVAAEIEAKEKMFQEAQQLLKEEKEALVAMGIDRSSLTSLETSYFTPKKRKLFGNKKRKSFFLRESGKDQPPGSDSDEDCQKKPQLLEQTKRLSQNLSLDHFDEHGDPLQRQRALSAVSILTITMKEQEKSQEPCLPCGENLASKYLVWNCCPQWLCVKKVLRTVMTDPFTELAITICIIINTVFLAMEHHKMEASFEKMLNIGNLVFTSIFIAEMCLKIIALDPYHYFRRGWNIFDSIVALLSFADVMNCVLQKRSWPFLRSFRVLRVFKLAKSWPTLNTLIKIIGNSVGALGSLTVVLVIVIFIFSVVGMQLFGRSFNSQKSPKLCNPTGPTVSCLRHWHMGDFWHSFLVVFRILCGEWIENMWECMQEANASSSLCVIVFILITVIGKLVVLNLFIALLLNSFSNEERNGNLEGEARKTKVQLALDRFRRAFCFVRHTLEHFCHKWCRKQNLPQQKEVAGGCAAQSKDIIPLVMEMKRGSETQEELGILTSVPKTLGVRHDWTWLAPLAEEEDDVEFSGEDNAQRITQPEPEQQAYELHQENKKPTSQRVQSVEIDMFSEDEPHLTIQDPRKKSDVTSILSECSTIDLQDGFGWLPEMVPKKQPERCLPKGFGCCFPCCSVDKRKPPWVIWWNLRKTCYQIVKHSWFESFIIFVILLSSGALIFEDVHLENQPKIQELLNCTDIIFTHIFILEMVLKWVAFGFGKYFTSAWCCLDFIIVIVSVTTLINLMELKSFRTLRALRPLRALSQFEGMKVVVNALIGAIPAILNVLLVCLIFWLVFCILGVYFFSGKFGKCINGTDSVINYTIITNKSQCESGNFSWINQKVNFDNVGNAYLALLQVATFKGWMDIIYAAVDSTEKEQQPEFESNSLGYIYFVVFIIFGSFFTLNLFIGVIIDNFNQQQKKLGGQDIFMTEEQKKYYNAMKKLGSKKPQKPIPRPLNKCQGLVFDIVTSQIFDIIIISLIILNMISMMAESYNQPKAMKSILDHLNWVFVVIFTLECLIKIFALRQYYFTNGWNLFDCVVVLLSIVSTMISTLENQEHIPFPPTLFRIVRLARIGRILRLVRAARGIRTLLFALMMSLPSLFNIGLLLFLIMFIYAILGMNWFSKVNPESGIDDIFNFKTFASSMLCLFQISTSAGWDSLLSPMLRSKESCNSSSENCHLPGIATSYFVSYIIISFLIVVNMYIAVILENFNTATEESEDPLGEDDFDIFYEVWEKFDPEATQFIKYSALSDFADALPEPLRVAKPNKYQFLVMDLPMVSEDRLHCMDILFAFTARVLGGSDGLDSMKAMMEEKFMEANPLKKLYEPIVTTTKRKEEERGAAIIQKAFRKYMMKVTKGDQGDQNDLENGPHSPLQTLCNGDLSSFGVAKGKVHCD
T1 sequence (Q07699 19-218 partner): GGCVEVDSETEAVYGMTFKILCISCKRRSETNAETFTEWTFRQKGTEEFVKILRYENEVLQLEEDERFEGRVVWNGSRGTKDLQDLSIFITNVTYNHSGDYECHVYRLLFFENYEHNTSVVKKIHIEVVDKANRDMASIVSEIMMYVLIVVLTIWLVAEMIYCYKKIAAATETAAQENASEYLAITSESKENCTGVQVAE
T3 sequence (Q9UI33 whole entry K799N): as the sequence (Q9UI33 whole entry) above, with K799N counted along it
T3 sequence (Q07699 19-218 partner): as the sequence (Q07699 19-218 partner) above
T2 sequence (Q9UI33 whole entry F1592A/Y1599A): as the sequence (Q9UI33 whole entry) above, with F1592A, Y1599A counted along it
T2 sequence (Q07699 19-218 partner): as the sequence (Q07699 19-218 partner) above
T4 sequence (Q15858 1-1977 isoform Q15858-3 N945K): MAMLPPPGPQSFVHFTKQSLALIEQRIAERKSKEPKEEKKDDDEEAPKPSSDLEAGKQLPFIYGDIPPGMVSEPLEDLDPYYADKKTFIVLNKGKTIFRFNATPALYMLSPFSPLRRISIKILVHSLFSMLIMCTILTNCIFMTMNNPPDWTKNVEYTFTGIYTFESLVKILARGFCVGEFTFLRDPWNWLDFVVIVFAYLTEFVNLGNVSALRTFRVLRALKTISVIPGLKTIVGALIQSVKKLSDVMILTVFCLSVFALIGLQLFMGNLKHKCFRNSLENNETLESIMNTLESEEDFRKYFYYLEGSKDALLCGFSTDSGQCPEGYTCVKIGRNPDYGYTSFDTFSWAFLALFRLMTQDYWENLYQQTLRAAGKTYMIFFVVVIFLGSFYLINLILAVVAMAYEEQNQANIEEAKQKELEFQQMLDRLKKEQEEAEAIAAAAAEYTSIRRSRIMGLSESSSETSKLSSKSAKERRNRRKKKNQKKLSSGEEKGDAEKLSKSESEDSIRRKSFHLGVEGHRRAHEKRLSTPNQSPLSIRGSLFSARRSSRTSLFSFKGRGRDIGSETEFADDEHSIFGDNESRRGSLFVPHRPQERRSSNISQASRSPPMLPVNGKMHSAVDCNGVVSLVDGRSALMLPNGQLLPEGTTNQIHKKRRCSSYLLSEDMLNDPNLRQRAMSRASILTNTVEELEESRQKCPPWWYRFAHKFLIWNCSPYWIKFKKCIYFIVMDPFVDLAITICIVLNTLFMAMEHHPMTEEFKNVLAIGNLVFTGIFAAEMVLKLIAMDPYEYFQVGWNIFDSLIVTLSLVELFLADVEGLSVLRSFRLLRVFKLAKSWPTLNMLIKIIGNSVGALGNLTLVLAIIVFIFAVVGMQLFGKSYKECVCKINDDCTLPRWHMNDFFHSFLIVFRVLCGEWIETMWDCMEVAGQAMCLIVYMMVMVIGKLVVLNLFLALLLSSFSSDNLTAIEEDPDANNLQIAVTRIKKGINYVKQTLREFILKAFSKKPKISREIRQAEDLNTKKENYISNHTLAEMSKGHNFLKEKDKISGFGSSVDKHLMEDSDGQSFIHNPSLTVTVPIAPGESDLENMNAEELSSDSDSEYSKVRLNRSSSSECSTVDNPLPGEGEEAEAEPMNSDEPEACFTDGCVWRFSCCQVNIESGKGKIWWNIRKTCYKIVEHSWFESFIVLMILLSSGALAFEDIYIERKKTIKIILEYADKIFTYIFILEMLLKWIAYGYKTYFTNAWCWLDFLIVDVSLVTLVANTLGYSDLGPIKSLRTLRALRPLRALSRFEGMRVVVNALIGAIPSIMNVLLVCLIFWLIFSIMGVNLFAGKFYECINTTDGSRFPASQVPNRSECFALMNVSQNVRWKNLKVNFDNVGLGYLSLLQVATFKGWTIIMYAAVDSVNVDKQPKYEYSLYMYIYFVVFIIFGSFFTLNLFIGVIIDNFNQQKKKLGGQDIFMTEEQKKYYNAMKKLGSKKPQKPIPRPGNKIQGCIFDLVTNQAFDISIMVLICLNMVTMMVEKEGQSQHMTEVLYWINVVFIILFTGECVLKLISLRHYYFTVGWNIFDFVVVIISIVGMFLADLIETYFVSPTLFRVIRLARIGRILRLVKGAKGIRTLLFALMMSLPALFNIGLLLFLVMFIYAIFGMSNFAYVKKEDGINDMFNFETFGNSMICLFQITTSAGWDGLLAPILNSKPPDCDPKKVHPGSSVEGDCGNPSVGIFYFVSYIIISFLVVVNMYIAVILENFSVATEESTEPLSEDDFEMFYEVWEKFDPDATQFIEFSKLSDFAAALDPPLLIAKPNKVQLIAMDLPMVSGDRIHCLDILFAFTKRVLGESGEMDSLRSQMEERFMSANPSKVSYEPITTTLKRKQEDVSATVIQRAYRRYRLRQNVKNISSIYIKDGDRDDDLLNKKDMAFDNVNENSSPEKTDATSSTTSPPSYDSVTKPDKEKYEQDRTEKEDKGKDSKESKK
T4 sequence (Q07699 19-218 partner): as the sequence (Q07699 19-218 partner) above
T4 sequence (O60939 30-215 partner): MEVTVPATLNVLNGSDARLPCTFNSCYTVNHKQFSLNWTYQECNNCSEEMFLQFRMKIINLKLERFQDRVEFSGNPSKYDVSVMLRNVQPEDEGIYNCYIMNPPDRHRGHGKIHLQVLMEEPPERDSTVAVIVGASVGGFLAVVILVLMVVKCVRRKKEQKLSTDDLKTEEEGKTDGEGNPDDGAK
T7 sequence (Q15858 1-1977 isoform Q15858-3): as the sequence (Q15858 1-1977 isoform Q15858-3 N945K) above, with K945N counted along it
T7 sequence (Q07699 19-218 partner): as the sequence (Q07699 19-218 partner) above
T7 sequence (O60939 30-215 partner): as the sequence (O60939 30-215 partner) above

SMILES: CCN(CC)CC(=O)Nc1c(C)cccc1C [Lidocaine]
- IC50 (Human Nav1.9; [2]): 356 µM
- Effect of the F1592A/Y1599A mutation on Nav1.9 inhibition [1]: reduced
- IC50 ([1]; same protocol as Nav1.9 WT): 5550 µM

SMILES: COCCOC(=O)C1=C(C)NC(C)=C(C(=O)OC(C)C)C1c1cccc([N+](=O)[O-])c1 (centres unmarked) [Nimodipine]
- IC50 (Human Nav1.9; [2]): 33 µM

SMILES: CC(=O)Nc1cccc(Nc2ncnc(N3CCC(OCc4ccc(OC(F)(F)F)cc4)CC3)n2)c1C [TC-N 1752]
- Decrease in potency by the K799N mutation (Nav1.9 K799N; Nav1.9 K799N vs Nav1.9 WT): 5.6 fold and ~ 6 fold
- Effect of the F1592A/Y1599A mutation on Nav1.9 inhibition [1, 3]: essentially abolished

SMILES: NC1=N[C@H](O)[C@H]2[C@H]3O[C@]4(O)O[C@@H]([C@@H](O)[C@@]2(N1)[C@@H]4O)[C@]3(O)CO [TTX, tetrodotoxin]
- Activity on human Nav1.9 at single concentration (Human Nav1.9): NA @ 10 μM
- Sensitivity of peak inward Nav1.9 current to inhibition (Human Nav1.9): insensitive

SMILES: Cc1cccc(C)c1OCC(C)N (centres unmarked) [Mexiletine]
- IC50 (Human Nav1.9; [2]): 270 µM
- Effect of the F1592A/Y1599A mutation on Nav1.9 inhibition [1, 3]: reduced
- IC50 ([1]; same protocol as Nav1.9 WT): 837 µM
- IC50 (Human Nav1.8): 18 µM

SMILES: COCC(=O)O[C@]1(CCN(C)CCCc2nc3ccccc3[nH]2)CCc2cc(F)ccc2[C@@H]1C(C)C [Mibefradil]
- Activity on human Nav1.9 at single concentration (Human Nav1.9; 10 μM): NA @ 10 μM

SMILES: O=C(Nc1ccc(S(=O)(=O)Nc2nccs2)cc1)C(c1ccccc1)c1ccccc1 [ICA-121431]
- Activity on human Nav1.9 at single concentration (Human Nav1.9; 10 μM): NA @ 10 μM

SMILES: O=C(NCC1CCCCN1)c1cc(OCC(F)(F)F)ccc1OCC(F)(F)F (centres unmarked) [Flecainide]
- IC50 (Human Nav1.9; [2]): 244 µM

SMILES: CCCCNc1ccc(C(=O)OCCN(C)C)cc1 [Tetracaine]
- Decrease in sensitivity by the N945K mutation (Nav1.7 N945K; Nav1.7 N945K vs Nav1.7 WT): 3 fold
- Increase in potency at the most depolarized membrane potential (Human Nav1.9): ~3 fold
- Increase in potency at the most depolarized membrane potential (Human Nav1.9; listed as tetracaine): no more than 3 fold
- IC50 (Human Nav1.9; holding potential -90 mV, read-out: IC50 for inhibition of Nav1.9 at holding potential -90 mV): 17 µM
- IC50 (Human Nav1.9; holding potential -100 mV, read-out: IC50 for inhibition of Nav1.9 at holding potential -100 mV): 22 µM
- IC50 (Human Nav1.9; [2]): 31.7 µM and 32 µM
- IC50 (Human Nav1.9; holding potential -120 mV, Fig 2B holding potential series, read-out: IC50 for inhibition of Nav1.9 at holding potential -120 mV): 31 µM
- IC50 (Human Nav1.9; holding potential -140 mV, read-out: IC50 for inhibition of Nav1.9 at holding potential -140 mV): 54 µM
- IC50 (Mouse Nav1.9): 12 µM
- IC50 (Rat Nav1.9): 7.6 µM
- Increase in potency by the K799N mutation (Nav1.9 K799N; Nav1.9 K799N vs Nav1.9 WT): 3 fold
- IC50 (Nav1.9 K799N): 10.3 µM and 10 µM
- IC50 ([1]; same protocol as Nav1.9 WT): 177 µM
- IC50 (Human Nav1.8): 0.3 µM

SMILES: COc1cc(NC(=O)c2ccc(-c3ccc(Cl)cc3)o2)cc(OC)c1 [A-803467]
- Inhibition of human Nav1.9 at single concentration (Human Nav1.9; 10 μM): 30% @ 10 μM

SMILES: Nc1nnc(-c2cccc(Cl)c2Cl)c(N)n1 [Lamotrigine]
- IC50 (Human Nav1.9; [2]): 199 µM

SMILES: CN(C)CCC=C1c2ccccc2CCc2ccccc21 [Amitriptyline]
- IC50 (Human Nav1.9; [2]): 29 µM
- IC50 ([1]; same protocol as Nav1.9 WT): 105 µM

SMILES: CCOC(=O)c1ccc(N)cc1 [Benzocaine]
- Effect of the N945K mutation on sensitivity (Nav1.7 N945K; Nav1.7 N945K vs Nav1.7 WT): no shift; also recorded: unchanged
- IC50 (Nav1.7 N945K; in figure): 180 µM
- IC50 (Human Nav1.9; [2]): 351 µM
- IC50 (Human Nav1.9; in figure, holding potential -120 mV, read-out: IC50 for inhibition of human Nav1.9 WT): 400 µM
- Effect of the K799N mutation on potency (Nav1.9 K799N; Nav1.9 K799N vs Nav1.9 WT): unaffected
- IC50 (Nav1.9 K799N; in figure): 300 µM
- Effect of the F1592A/Y1599A mutation on Nav1.9 inhibition [1, 3]: reduced
- Reduction in potency by the F1592A/Y1599A mutation [1, 3]: 5 fold
- IC50 ([1]; in figure): 1800 µM
- IC50 ([1]; same protocol as Nav1.9 WT): 1760 µM
- IC50 (Human Nav1.7; in figure, read-out: IC50 for inhibition of Nav1.7 WT): 130 µM
- IC50 (Human Nav1.7; wild type, ~50% inactivated, read-out: IC50 for inhibition of human Nav1.7): 133 µM

SMILES: [Cl][Cd][Cl] [CdCl2]
- Activity on human Nav1.9 at single concentration (Human Nav1.9; 100 μM): NA @ 100 μM

SMILES: CCCCN1CCCCC1C(=O)Nc1c(C)cccc1C (centres unmarked) [Bupivacaine]
- IC50 (Human Nav1.9; [2]): 186 µM

— article PMC4996523, “Biophysical and Pharmacological Characterization of Nav1.9 Voltage Dependent Sodium Channels Stably Expressed in HEK-293 Cells” (PLoS ONE, 2016)
